Measured values from article PMC3058116 (Therapeutic drug monitoring, 2011).

What was measured:
[1] = cited from earlier work
[2] = Population pharmacokinetic analysis; assay type: in vivo, HIV-infected Thai patients
[3] = indinavir model, bootstrap median
[4] = indinavir model, final model estimate

## CC(C)(C)NC(=O)[C@@H]1CN(Cc2cccnc2)CCN1C[C@@H](O)C[C@@H](Cc1ccccc1)C(=O)N[C@H]1c2ccccc2C[C@H]1O [IDV, Indinavir]
[1]; Thai patients receiving IDV/r 800/100 mg twice daily
  indinavir AUC associated with an increased risk of developing nephrotoxicity: > 60 mg·h/mL
[1]; after adjusting for concomitant ritonavir use
  indinavir CL/F higher in male patients compared to female patients: 30%
[1]; analysis including only nine women
  indinavir bioavailability higher in female patients than in males: 48%
[2]; [3]
  Inter-individual variability IIV (CL/F): 0.29
  Inter-individual variability IIV (Ktr): 0.352
  Ktr (= Ka within a transit model): 2.37 h⁻¹
  Residual variability, proportional σ (IDV 400 mg): 0.42
  Residual variability, proportional σ (IDV 600 mg): 0.29
[2]; [4]
  Inter-individual variability IIV (CL/F): 0.30
  Inter-individual variability IIV (Ktr): 0.38
  Ktr (= Ka within a transit model): 2.32 h⁻¹
  Residual variability, proportional σ (IDV 400 mg): 0.42
  Residual variability, proportional σ (IDV 600 mg): 0.29
[2]; indinavir model, final model, ω^2(V/F) = θpV/F × ω^2(CL/F)
  Inter-individual variability IIV (Vd/F): 0.23
[2]; indinavir, final population estimate
  interindividual variability of CL/F: 30%

## CC(C)c1nc(CN(C)C(=O)N[C@H](C(=O)N[C@@H](Cc2ccccc2)C[C@H](O)[C@H](Cc2ccccc2)NC(=O)OCc2cncs2)C(C)C)cs1 [RTV, ritonavir]
[2]; both, human, in vivo
  Residual variability σ (Proportional): 0.36
  interindividual variability of CL/F: 48%
  interindividual variability of Vd/F: 45%
  θIDVDOSE-600mg (factor on ritonavir CL/F): 0.78
  θSEX-Female (factor on ritonavir CL/F): 0.77
[2]; human, in vivo
  CL/F: 10.1 L/h
[2]; human, in vivo, 100 mg
  CL/F: 10.1 L/h
